Assays:
Type in all cases: cell-based
Conditions in all cases: BHI agar, 35-37° C., 20 to 24 hours
[1] = system: STAPHYLOCOCCUS AUREUS ATCC 6538P; assay: In vitro antibacterial activity (agar dilution MIC)
Method: (§1) Representative compounds of the present invention were assayed in vitro for antibacterial activity as follows: Twelve petri dishes containing successive aqueous dilutions of the test compound mixed with 10 mL of sterilized Brain Heart Infusion (BHI) agar (Difco 0418-01-5) were prepared. Each plate was inoculated with 1:100 (or 1:10 for slow-growing strains, such as Micrococcus and Streptococcus) dilutions of up to 32 different microorganisms, using a Steers replicator block. The inoculated plates were incubated at 35-37° C. for 20 to 24 hours. In addition, a control plate, using BHI agar containing no test compound, was prepared and incubated at the beginning and end of each test.
(§2) An additional plate containing a compound having known susceptibility patterns for the organisms being tested and belonging to the same antibiotic class as the test compound was also prepared and incubated as a further control, as well as to provide test-to-test comparability. Erythromycin A was used for this purpose.
(§3) After incubation, each plate was visually inspected. The minimum inhibitory concentration (MIC) was defined as the lowest concentration of drug yielding no growth, a slight haze, or sparsely isolated colonies on the inoculum spot as compared to the growth control.

ESCHERICHA COLI SS = assay: as above
Method: as §1, §2, §3

STR[…] 930 = assay: as above
Method: as §1, §2, §3

ESCHERICHIA COLI DC-2 = assay: as above
Method: as §1, §2, §3

[2] = system: STAPHYLOCOCCUS AUREUS A5177; assay: as above
Method: as §1, §2, §3

ESCHERICHIA COLI JUHL = assay: as above
Method: as §1, §2, §3

[3] = system: STREPTOCOCCUS BOVIS A-5169; assay: as above
Method: as §1, §2, §3

[4] = system: STREPTOCOCCUS PYOGENES EES61; assay: as above
Method: as §1, §2, §3

[5] = system: STAPHYLOCOCCUS AUREUS A-5278; assay: as above
Method: as §1, §2, §3

[6] = system: STAPHYLOCOCCUS AUREUS 1775; assay: as above
Method: as §1, §2, §3

STR[…] PIU 2548 = assay: as above
Method: as §1, §2, §3

CANDIDA ALBICANS CCH 442 = assay: In vitro antimicrobial activity (agar dilution MIC)
Method: as §1, §2, §3

[7] = system: MYCOBACTERIUM SMEGMATIS ATCC 114; assay: In vitro antibacterial activity (agar dilution MIC)
Method: as §1, §2, §3

[8] = system: STAPHYLOCOCCUS AUREUS NCTC10649M; assay: as above
Method: as §1, §2, §3

[9] = system: STAPHYLOCOCCUS AUREUS CMX 642A; assay: as above
Method: as §1, §2, §3

N. ASTEROIDES ATCC 9970 = assay: as above
Method: as §1, §2, §3

[10] = system: STAPHYLOCOCCUS AUREUS CMX 553; assay: as above
Method: as §1, §2, §3

[11] = system: STAPHYLOCOCCUS EPIDERMIDIS 3519; assay: as above
Method: as §1, §2, §3

| SMILES | minimum inhibitory concentration (MIC) [1] | minimum inhibitory concentration (MIC) (ESCHERICHA COLI SS) | minimum inhibitory concentration (MIC) (STR[…] 930) | minimum inhibitory concentration (MIC) (ESCHERICHIA COLI DC-2) | minimum inhibitory concentration (MIC) [2] | minimum inhibitory concentration (MIC) (ESCHERICHIA COLI JUHL) | minimum inhibitory concentration (MIC) [3] | minimum inhibitory concentration (MIC) [4] | minimum inhibitory concentration (MIC) [5] | minimum inhibitory concentration (MIC) [6] | minimum inhibitory concentration (MIC) (STR[…] PIU 2548) | minimum inhibitory concentration (MIC) (CANDIDA ALBICANS CCH 442) | minimum inhibitory concentration (MIC) [7] | minimum inhibitory concentration (MIC) [8] | minimum inhibitory concentration (MIC) [9] | minimum inhibitory concentration (MIC) (N. ASTEROIDES ATCC 9970) | minimum inhibitory concentration (MIC) [10] | minimum inhibitory concentration (MIC) [11] |
| --- | --- | --- | --- | --- | --- | --- | --- | --- | --- | --- | --- | --- | --- | --- | --- | --- | --- | --- |
| CC[C@H]1OC(=O)[C@H](C)C(=O)[C@H](C)[C@@H](O[C@@H]2O[C@H](C)C[C@H](N(C)C)[C@H]2O)[C@](C)(OC)C[C@@H](C)C2Nc3ccccc3N3C(=O)O[C@@]1(C)[C@H]3[C@H]2C (single isomer, unassigned) [Ex 3] | 25 | 100 | > 100 | > 100 | 25 | > 100 | 1.56 | 3.1 | > 100 | > 100 | 25 | > 100 |  |  |  |  |  |  |
| CC[C@H]1OC(=O)[C@H](C)C(=O)[C@H](C)[C@@H](O[C@@H]2O[C@H](C)C[C@H](N(C)C)[C@H]2O)[C@](C)(OC)C[C@@H](C)C2=Nc3ccccc3N3C(=O)O[C@@]1(C)[C@H]3[C@H]2C [Ex 2] | 0.39 | 1.56 | > 100 | > 100 | 0.39 | > 100 | 0.1 | 0.1 | > 100 | > 100 | 0.39 | > 100 | 3.1 | 0.39 | 0.39 | 0.39 | 0.39 | 0.39 |
| CC[C@H]1OC(=O)[C@H](C)C(=O)[C@H](C)[C@@H](O[C@@H]2O[C@H](C)C[C@H](N(C)C)[C@H]2O)[C@](C)(OC)C[C@@H](C)C2=Nc3cc(C)ccc3N3C(=O)O[C@@]1(C)[C@H]3[C@H]2C [Ex 4] | 0.78 | 0.2 | > 100 | > 100 | 0.78 | > 100 |  |  | > 100 |  | 0.2 | > 100 | 100 | 0.78 | 0.78 | 0.1 |  |  |
| CC[C@H]1OC(=O)[C@H](C)C(=O)[C@H](C)[C@@H](O[C@@H]2O[C@H](C)C[C@H](N(C)C)[C@H]2O)[C@](C)(OC)C[C@@H](C)C2=Nc3cc(OC)ccc3N3C(=O)O[C@@]1(C)[C@H]3[C@H]2C [Ex 5] | 0.78 | 50 | > 100 | > 100 | 0.78 | > 100 | 0.02 | 0.02 | > 100 | > 100 | 0.39 | > 100 | 1.56 | 0.78 | 0.78 | 0.2 | 0.78 | 0.78 |
| CC[C@H]1OC(=O)[C@H](C)C(=O)[C@H](C)[C@@H](O[C@@H]2O[C@H](C)C[C@H](N(C)C)[C@H]2O)[C@](C)(OC)C[C@@H](C)C2=Nc3cc(C#N)ccc3N3C(=O)O[C@@]1(C)[C@H]3[C@H]2C [Ex 6] | 0.39 | 3.1 | > 100 | > 100 |  | > 100 |  |  | > 100 | > 100 | 0.39 | > 100 | 0.1 | 0.39 | 0.39 | 0.39 | 0.39 | 0.2 |
| CC[C@H]1OC(=O)[C@H](C)C(=O)[C@H](C)[C@@H](O[C@@H]2O[C@H](C)C[C@H](N(C)C)[C@H]2O)[C@](C)(OC)C[C@@H](C)C2=Nc3cccnc3N3C(=O)O[C@@]1(C)[C@H]3[C@H]2C [Ex 7] | 0.39 | 0.78 | > 100 | > 100 | 0.39 | > 100 | 0.05 | 0.05 | > 100 | > 100 | 0.39 | > 100 | 3.1 | 0.39 | 0.39 | 0.1 | 0.39 | 0.39 |
| C=CCO[C@]1(C)C[C@@H](C)C2=Nc3ccccc3N3C(=O)O[C@](C)([C@@H](CC)OC(=O)[C@H](C)C(=O)[C@H](C)[C@H]1O[C@@H]1O[C@H](C)C[C@H](N(C)C)[C@H]1O)[C@H]3[C@H]2C [Ex 8] | 0.78 | 12.5 | > 100 | > 100 | 0.78 | > 100 | 0.1 | 0.39 | > 100 | > 100 | 0.78 | > 100 |  | 0.78 | 0.78 | 3.1 | 0.78 |  |

Reference: US5922683A, “Multicyclic erythromycin derivatives” (Abbott Laboratories, priority 1998, dated 1999)
